Results reported in patent US20160237146A1, “Methods of Preventing or Reducing Photoreceptor Cell Death” (MASSACHUSETTS EYE AND EAR INFIRMARY, priority 2013, published 2016).
Entries after “also recorded” stand apart in the source; their conditions may differ.

What was measured:
Fb = conditions: retina 24 hours after RD, mice kept in 75% oxygen vs room air
Method: RNA was isolated using an RNeasy micro kit (Qiagen, 74004, Valencia, Calif.) for LCM samples or an RNeasy mini kit (Qiagen, 74106, Valencia, Calif.) for whole retina. Total RNA was measured using a nanodrop spectrophotometer (Thermo Scientific, Nanodrop 2000, Waltham, Mass.) then each sample was normalized prior to transcribing cDNA. cDNA was transcribed using superscript III (Invitrogen, 18080-044, Carlsbad, Calif.) then one microliter of cDNA was used for each RTPCR reaction. […] Primers for Cd55 using photoreceptors isolated by LCM were obtained through Integrated DNA Technologies using their online Primer Quest design tool and importing the NCBI ID number for the sequence (Forward 5′-[sequence]-3′ (SEQ ID NO: 5) and Reverse 5′-[sequence]-3′ (SEQ ID NO: 6)). RTPCR was run in triplicate and the average of each CT value used for analysis. All CT values were normalized to beta actin from each sample as an internal control. Final values were determined using the MET method.
After 24 hours the mice were anesthetized under a heavy dose of avertin (2,2,2 tribromo ethanol, Sigma, T4, 840-2) at a working concentration of 10 mg/ml and injected at a dose of 0.25-0.5 mg/gram intraperitoneally. In one group the eyes were enucleated and frozen in OCT compound using isopropanol chilled by dry ice. The eyes were then processed for TUNEL labeling and quantified as described above. […]

[1] = system: photoreceptor cell death in response to RD; assay: Mouse model of retinal detachment, TUNEL labeling of the ONL; format: in vivo, mice
Method: Briefly, RD was created in the right eye of adult mice (8-12 weeks), as previously reported (Hisatomi, T. et al., Am J Pathol, 2001, 158:1271-1278), with minor modification. Briefly, mice were anesthetized using a mixture of ketamine (80 mg/kg) and xylazine (8 mg/kg). Deep anesthesia was confirmed by a toe pinch test. One drop of proparacaine hydrochloride (0.5%) (Akorn, 17478-263-12) was administered to each eye. A self-sealing scleral incision was made using a 30 G needle. Next, an anterior chamber puncture was performed from the cornea to reduce intraocular pressure. A 33 G needle attached to a Hamilton 10 μl syringe was inserted into the subretinal space, and 4 μl sodium hyaluronate (Provisc®, Alcon) was gently injected to enlarge the RD (fundus Image of a retinal detachment; FIG. 7A) (Matsumoto, H. et al., J Vis Exp, 2013, (79)). After the injection, glue (Webglue™) was put on the scleral wound and the conjunctiva reattached to the original position. Photoreceptor apoptosis was assessed (12-72 hours post detachment) by identifying TUNEL positive cells in cross sections (FIGS. 7C and D).
Twenty-four hours post-injury, retinas were isolated and cross-sections were prepared for staining with DAPI (a nuclear marker) and TUNEL (a cell death marker). The mid-point of the retinal arc between the optic nerve and the edge of the retina was quantified for TUNEL positive cells.
The model of retinal detachment was performed precisely as described above with one modification: Prior to injecting the provisc 1 μl of the purified C3 antibody (0.1 μg) or IgG2a isotype control (Life Technologies, 02-9688) was injected into the sub-retinal space through the scleral tunnel. The eyes were enucleated 24 hours after RD and processed for TUNEL labeling as described earlier.

Row | Compound | Fb expression, alternative pathway activation (Fb) | cell death (TUNEL positive cells in the ONL) ([1]; mice housed 24 hours after RD in a 75% oxygen chamber vs room air (approximately 21% oxygen)) | photoreceptor cell death (TUNEL positive cells in the ONL) ([1]; C3-/- mice, sub-retinal injection prior to Provisc, 24 hours after RD, vs PBS)
1 | O=O [75% oxygen, oxygen] | significantly less Fb expression | significant reduction in cell death | –
2 | cobra venom factor [CVF] | – | – | significant up-regulation of photoreceptor cell death; also recorded: increased photoreceptor cell death after RD
